Source: patent US20260014147A1, “STAT6 DEGRADERS” (Gilead Sciences, Inc., priority 2024, published 2026)

Tests used:
[1] = target: T1, STAT6 (endogenous, HiBiT-tagged) in HeLa LgBiT clone 4.14 cells (Homo sapiens, UniProt P42226); assay: STAT6 Degrader Assay (HiBiT based, HeLa LgBiT clone 4.14 cells, luminescence, DC50); assay type: cell-based; conditions: geometric mean; for DC50: DC50 provided for test compounds with >80% Emax, read-out: STAT6 degradation DC50; for Emax: Emax provided for test compounds with <80% Emax (and 2c15), read-out: STAT6 degradation Emax
T1 construct: These cells express endogenous STAT6; host or cells: HeLa LgBiT clone 4.14
T1 sequence (P42226 1-847): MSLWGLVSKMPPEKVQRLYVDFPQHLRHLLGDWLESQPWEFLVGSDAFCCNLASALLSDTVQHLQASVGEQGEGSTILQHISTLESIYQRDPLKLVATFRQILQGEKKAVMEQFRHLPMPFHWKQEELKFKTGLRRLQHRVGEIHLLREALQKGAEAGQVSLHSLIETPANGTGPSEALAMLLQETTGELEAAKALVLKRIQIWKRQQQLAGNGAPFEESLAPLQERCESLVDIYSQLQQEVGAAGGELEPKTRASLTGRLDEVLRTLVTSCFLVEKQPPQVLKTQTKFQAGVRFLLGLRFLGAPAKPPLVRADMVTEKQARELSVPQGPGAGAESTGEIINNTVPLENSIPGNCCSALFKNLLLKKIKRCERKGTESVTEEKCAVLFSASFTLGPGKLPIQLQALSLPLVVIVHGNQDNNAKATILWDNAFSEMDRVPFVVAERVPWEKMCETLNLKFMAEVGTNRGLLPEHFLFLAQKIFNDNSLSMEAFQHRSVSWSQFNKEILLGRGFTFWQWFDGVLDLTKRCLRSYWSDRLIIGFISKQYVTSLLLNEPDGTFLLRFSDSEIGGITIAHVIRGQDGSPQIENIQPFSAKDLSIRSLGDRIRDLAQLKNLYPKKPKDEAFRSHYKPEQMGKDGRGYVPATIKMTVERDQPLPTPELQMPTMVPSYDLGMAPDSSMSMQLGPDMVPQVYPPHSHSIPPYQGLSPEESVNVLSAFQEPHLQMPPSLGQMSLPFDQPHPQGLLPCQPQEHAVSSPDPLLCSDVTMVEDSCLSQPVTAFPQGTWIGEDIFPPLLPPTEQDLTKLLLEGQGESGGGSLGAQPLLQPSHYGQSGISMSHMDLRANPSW
Procedure, shortened: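 HeLa LgBiT clone 4.14 cells carry CRISPR-inserted HiBiT on endogenous STAT6; 5000 cells/well were exposed to compound for 4-24 h at 37 °C, 5% CO2. Nano-Glo substrate added for 0.5 h; luminescence reflects remaining STAT6, with terfenadine ([…]) wells defining 100% degradation.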

[2] = test system: Eotaxin-3 (CCL26) release in human whole blood stimulated with IL-4; assay: Human Whole Blood Eotaxin-3 Assay (IL-4 stimulated, inhibition of eotaxin-3 release); assay type: cell-based; conditions: Homo sapiens, EC50 provided for test compounds with >80% Emax, geometric mean across assay runs and batches
Procedure: This was a human whole blood assay using recombinant human Interleukin 4 to stimulate the blood and measuring the ability of the test compounds to inhibit eotaxin-3 release. The biological activities of the test compounds have been tested in human whole blood stimulated with IL-4 measuring Eotaxin-3 release. The test compounds were added to 384 well clear flat-bottom plate in a 4-fold serial dilution in triplicates using a liquid handler. Human whole blood stabilized in lithium-heparin tubes was added in a volume of 65 uL per well, resulting in a final DMSO concentration of 0.5%. The plate is incubated for 2 h at 37° C. under 5% CO2/95% air. Subsequently, 5 μL of recombinant human IL-4 (R&D Systems, cat #204-ILB) was added to the wells to a final concentration of 400 pM. The plate was incubated for 48 h at 37° C. under 5% CO2/95% air. The plate was spun down for 10 minutes at 500×g and 20 uL supernatant was harvested and transferred to a 384 well v-bottom plate using a liquid handler and stored at −20° C. until further analysis. 10 uL supernatant was used to measure the level of Eotaxin-3 (CCL26) using Human Eotaxin-3 MSD kit from Mesocsale (Cat #K251UEK-4). The assay was performed according to the manufacture instructions.
The data from the human whole blood eotaxin-3 assay is shown below for Examples 2q11, 2110, and 2c49 (where the effect in % is plotted against the test concentration in M on a log-scale).

| SMILES | DC50 [1] [nM] | EC50 [2] [nM] | Emax [1] [%] |
| --- | --- | --- | --- |
| C[C@@H](c1cc2c(-c3ccc(N)nc3C#N)ccnc2n1C)N1CCC(c2ccc(C(=O)N3CCC(CN4CCN(c5ccc(NC6CCC(=O)NC6=O)cc5F)CC4)CC3)cc2)CC1 (stereo partly drawn) [Example 2c22, 6-amino-3-(2-((1S)-1-(4-(4-(4-((4-(4-((2,6-dioxopiperidin-3-yl)amino)-2-fluorophenyl)-piperazin-1-yl)methyl)piperidine-1-carbonyl)phenyl)piperidin-1-yl)ethyl)-1-methyl-1H-pyrrolo[2,3-b]pyridin-4-yl) picolinonitrile] | 28.2 | 153 | – |
| C[C@@H](c1cc2c(-c3cnc(N)c(F)c3)ccnc2n1C)N1CCC(c2ccc(C(=O)N3CCC(CN4CCN(c5ccc(NC6CCC(=O)NC6=O)cc5F)CC4)CC3)cc2)CC1 (stereo partly drawn) [Example 2c24, 3-((4-(4-((1-(4-(1-((S)-1-(4-(6-amino-5-fluoropyridin-3-yl)-1-methyl-1H-pyrrolo[2,3-b]pyridin-2-yl)ethyl)piperidin-4-yl)benzoyl)piperidin-4-yl)methyl)piperazin-1-yl)-3-fluorophenyl)-amino)piperidine-2,6-dione] | 44.7 | 792 | – |
| C[C@@H](c1cc2c(-c3ccc(NCCO)nc3)ccnc2n1C)N1CCC(c2ccc(C(=O)N3CCC(CN4CCN(c5ccc(NC6CCC(=O)NC6=O)cc5F)CC4)CC3)cc2)CC1 (stereo partly drawn) [Example 2c26, 3-((3-fluoro-4-(4-((1-(4-(1-((S)-1-(4-(6-((2-hydroxyethyl)amino)pyridin-3-yl)-1-methyl-1H-pyrrolo[2,3-b]pyridin-2-yl)ethyl)piperidin-4-yl)benzoyl)piperidin-4-yl)methyl)piperazin-1-yl)phenyl)-amino)piperidine-2,6-dione] | – | 188 | 60 to 70 |
| C[C@@H](c1cc2c(-c3ccc(N)nn3)ccnc2n1C)N1CCC(c2ccc(C(=O)N3CCC(CN4CCN(c5ccc(NC6CCC(=O)NC6=O)cc5F)CC4)CC3)cc2)CC1 (stereo partly drawn) [Example 2c27, 3-((4-(4-((1-(4-(1-((S)-1-(4-(6-aminopyridazin-3-yl)-1-methyl-1H-pyrrolo[2,3-b]pyridin-2-yl)ethyl)piperidin-4-yl)benzoyl)piperidin-4-yl)methyl)piperazin-1-yl)-3-fluorophenyl)amino)piperidine-2,6-dione] | – | 169 | 70 to 80 |
| C[C@@H](c1cc2c(-c3ccc4[nH]c(=O)n(C)c4c3)ccnc2n1C)N1CCC(c2ccc(C(=O)N3CCC(CN4CCN(c5ccc(NC6CCC(=O)NC6=O)cc5F)CC4)CC3)cc2)CC1 (stereo partly drawn) [Example 2c28, 3-((3-fluoro-4-(4-((1-(4-(1-((S)-1-(1-methyl-4-(3-methyl-2-oxo-2,3-dihydro-1H-benzo[d]imidazol-5-yl)-1H-pyrrolo[2,3-b]pyridin-2-yl)ethyl)piperidin-4-yl)benzoyl)piperidin-4-yl)methyl)piperazin-1-yl)phenyl)amino)piperidine-2,6-dione] | – | 95.3 | 70 to 80 |
| C[C@@H](c1cc2c(-c3ncc(N)cc3F)ccnc2n1C)N1CCC(c2ccc(C(=O)N3CCC(CN4CCN(c5ccc(NC6CCC(=O)NC6=O)cc5F)CC4)CC3)cc2)CC1 (stereo partly drawn) [Example 2c30, 3-((4-(4-((1-(4-(1-((S)-1-(4-(5-amino-3-fluoropyridin-2-yl)-1-methyl-1H-pyrrolo[2,3-b]pyridin-2-yl)ethyl)piperidin-4-yl)benzoyl)piperidin-4-yl)methyl)piperazin-1-yl)-3-fluorophenyl)-amino)piperidine-2,6-dione] | – | 507 | 30 to 40 |
| C[C@@H](c1cc2c(-c3ccc(N)cn3)ccnc2n1C)N1CCC(c2ccc(C(=O)N3CCC(CN4CCN(c5ccc(NC6CCC(=O)NC6=O)cc5F)CC4)CC3)cc2)CC1 (stereo partly drawn) [Example 2c33, 3-((4-(4-((1-(4-(1-((S)-1-(4-(5-aminopyridin-2-yl)-1-methyl-1H-pyrrolo[2,3-b]pyridin-2-yl)ethyl)-piperidin-4-yl)benzoyl)piperidin-4-yl)methyl)piperazin-1-yl)-3-fluorophenyl)amino)piperidine-2,6-dione] | 22.5 | 136 | – |

Now those with a lower EC50 [2], led by results:

| DC50 [1] [nM] | EC50 [2] [nM] | Emax [1] [%] | SMILES |
| --- | --- | --- | --- |
| 0.8 | 5.9 | – | C[C@@H](c1cc2c(-c3ccc(N)nc3)ccnc2n1C)N1CCC(c2ccc(C(=O)N3CCn4nc(CN5CCC(c6ccc(N[C@H]7CCC(=O)NC7=O)cc6F)CC5)cc4C3)cc2)CC1 (single isomer, unassigned) [Example 2q11] |
| 6.6 | 65 | – | C[C@@H](c1cc2c(-c3ccc(N)nc3)ccnc2n1C)N1CCC(c2ccc(C(=O)N3CCC(CN4CCN(c5ccc(NC6CCC(=O)NC6=O)cc5F)CC4)CC3)cc2)CC1 (stereo partly drawn) [Example 2c14, 3-((4-(4-((1-(4-(1-((S)-1-(4-(6-aminopyridin-3-yl)-1-methyl-1H-pyrrolo[2,3-b]pyridin-2-yl)ethyl)-piperidin-4-yl)benzoyl)piperidin-4-yl)methyl)piperazin-1-yl)-3-fluorophenyl)amino)piperidine-2,6-dione] |
| 1.2 | 22.6 | – | COCc1nc2ccc(-c3ccnc4c3cc([C@H](C)N3CCC(c5ccc(C(=O)N6CCC(CN7CCN(c8ccc(NC9CCC(=O)NC9=O)cc8F)CC7)CC6)cc5)CC3)n4C)cc2[nH]1 (stereo partly drawn) [Example 2c16, 3-((3-fluoro-4-(4-((1-(4-(1-((S)-1-(4-(2-(methoxymethyl)-1H-benzo[d]imidazol-6-yl)-1-methyl-1H-pyrrolo[2,3-b]pyridin-2-yl)ethyl)piperidin-4-yl)benzoyl)piperidin-4-yl)methyl)piperazin-1-yl)phenyl)amino)piperidine-2,6-dione] |
| 4.8 | 39 | – | CO[C@@H](C)c1nc2cc(-c3ccnc4c3cc([C@H](C)N3CCC(c5ccc(C(=O)N6CCC(CN7CCN(c8ccc(NC9CCC(=O)NC9=O)cc8F)CC7)CC6)cc5)CC3)n4C)ccc2[nH]1 (stereo partly drawn) [Example 2c18, 3-((3-fluoro-4-(4-((1-(4-(1-((S)-1-(4-(2-((S)-1-methoxyethyl)-1H-benzo[d]imidazol-5-yl)-1-methyl-1H-pyrrolo[2,3-b]pyridin-2-yl)ethyl)piperidin-4-yl)benzoyl)piperidin-4-yl)methyl)piperazin-1-yl)phenyl)amino)piperidine-2,6-dione] |
| 9.6 | 49.2 | – | C[C@@H](c1cc2c(-c3ccc(N)nc3)ccnc2n1C)N1CCC(c2ccc(C(=O)N3CCC(F)(CN4CCN(c5ccc(NC6CCC(=O)NC6=O)cc5F)CC4)CC3)cc2)CC1 (stereo partly drawn) [Example 2c23, 3-((4-(4-((1-(4-(1-((S)-1-(4-(6-aminopyridin-3-yl)-1-methyl-1H-pyrrolo[2,3-b]pyridin-2-yl)ethyl)-piperidin-4-yl)benzoyl)-4-fluoropiperidin-4-yl)methyl)piperazin-1-yl)-3-fluorophenyl)amino)-piperidine-2,6-dione] |
| 16.5 | 67.9 | – | COc1nc(N)ccc1-c1ccnc2c1cc([C@H](C)N1CCC(c3ccc(C(=O)N4CCC(CN5CCN(c6ccc(NC7CCC(=O)NC7=O)cc6F)CC5)CC4)cc3)CC1)n2C (stereo partly drawn) [Example 2c32, 3-((4-(4-((1-(4-(1-((S)-1-(4-(6-amino-2-methoxypyridin-3-yl)-1-methyl-1H-pyrrolo[2,3-b]pyridin-2-yl)ethyl)piperidin-4-yl)benzoyl)piperidin-4-yl)methyl)piperazin-1-yl)-3-fluorophenyl)amino)-piperidine-2,6-dione] |
